Measured values taken from patent US20050222312A1, “Antioxidant and antimicrobial agents and methods of use thereof” (priority 2002, published 2005).

What was measured:
forestomachs of rats = details: Nera et al., Toxicology 32:197-213 (1984); cited from earlier work
Listeria monocytogenes [1] = test: liquid culture growth inhibition assay; format: cell-based; details: all strains tested, 24 and 48 hrs
Procedure: (§1) For these experiments, three strains of Listeria monocytogenes (CWD 95, CWD 246 and CWD 201), three strains of Escherichia coli O157:H7 (AR, AD 305, and AD 317), Salmonella typhimurium (clinical DT 104 isolate H3380), Salmonella enteritidis (clinical isolate H3527, phage type 13A) and Salmonella heidelberg (clinical isolate F5038BG1, Maryland outbreak) were obtained. All strains were stored at −70° C., in Trypticase soy broth containing 10% (v/v) glycerol. Thawed strains were subcultured three times in Trypticase soy broth containing 0.6% (w/v) yeast extract (TSB-YE) (Difco Laboratories, Detroit, Mich.) at 35° C., 18 to 24 h before use.
(§2) For these experiments, sub-cultured bacteria (10^8 cfu Salmonella; 10^9 cfu Listeria monocytogenes and 10^9 cfu E. coli) were each added to culture tubes containing TSB-YE. Three strains of each bacterial species were used, and 1,2,3,4-tetrahydroxybenzene was added to concentrations ranging from 1.4 mM to 14 mM. Three culture tubes were used for each 1,2,3,4-tetrahydroxybenzene concentration. The samples were incubated at 35° C. and observation of growth was recorded at 24 and 48 hrs. Results were reported as the number or tubes positive or negative for growth at 24 h and 48 h.

Salmonella enteritidis = test: liquid culture growth inhibition assay; format: cell-based; details: all strains tested, 24 and 48 hrs
Procedure: as §1, §2

Salmonella cocktail = test: liquid culture growth inhibition assay; format: cell-based
Procedure: as §1, §2

Salmonella typhimurium [2] = test: liquid culture growth inhibition assay; format: cell-based; details: all strains tested, 24 and 48 hrs
Procedure: as §1, §2

Salmonella heidelberg = test: liquid culture growth inhibition assay; format: cell-based; details: all strains tested, 24 and 48 hrs
Procedure: as §1, §2

E. coli O157:H7 = test: liquid culture growth inhibition assay; format: cell-based, Escherichia coli O157:H7; details: all strains tested, 24 and 48 hrs
Procedure: as §1, §2

Listeria monocytogenes [3] = test: inhibition zone experiment (pour plate, filter disc); format: cell-based; details: 24 hrs, FIG. 3
Procedure: as §1
(§3) To test antimicrobial activity of 1,2,3,4-tetrahydroxybenzene, a pour plate technique was used in which 200 μl samples of subcultured bacteria (either […] colony forming units (CFU)/ml of Salmonella, 109 CFU/ml of L. monocytogenes or 10^9 CFU/ml of E. coli) were transferred to a Petri dish (100 mm×15 mm) to which 20 ml of Trypticase soy agar containing 0.6% (w/v) yeast extract (TSA-YE) was added. The contents of each Petri dish was then mixed by gently forming figure eights with the dish against the bench top. Separately, solutions of 1,2,3,4-tetrahydroxybenzene were prepared at the following concentrations: 1.4 M, 0.14 M, 0.014 M, 0.0014 M, and 0.00014 M. 16 mm filter discs comprising 1,2,3,4-tetrahydroxybenzene each then received 50 μl of a solution comprising one concentration of 1,2,3,4-tetrahydroxybenzene. A single 16 mm disc comprising 50 μl of one concentration of 1,2,3,4-tetrahydroxybenzene was then placed aseptically in the center of each Petri dish. The Petri dishes were then incubated at 35° C. Zones of growth inhibition were determined by observation at 24 hrs. All tests were run in triplicate and averaged.

Salmonella typhimurium [4] = test: as above; format: cell-based; details: 24 hrs, FIG. 3
Procedure: as §1, §3

Escherichia coli = test: as above; format: cell-based; details: 24 hrs, FIG. 3
Procedure: as §1, §3

[5] = antioxidant activity, peroxide value of lard; details: 0.01% w/w, 60° C., FIG. 2
Procedure: (§4) Aliquots of corn oil stripped of endogenous antioxidants were mixed with either 1,2,3,4-tetrahydroxybenzene (OH-Bz), or with a known antioxidant chosen from propyl gallate (PG), tert-butylhydroquinone (TBHQ), and α-tocopherol (Toc). Each antioxidant was at a concentration of 0.01% w/w (i.e., 100 ppm). The mixtures (as well as controls) were maintained at 60° C. Samples of each mixture were removed at a series of time points over a period of 28 days, and the peroxide value of each sample was measured using standard laboratory techniques (FIG. 1). Similarly, aliquots of lard were mixed with either 1,2,3,4-tetrahydroxybenzene (OH-Bz), or with a known antioxidant chosen from propyl gallate (PG), tert-butylhydroquinone (TBHQ), and α-tocopherol (Toc). Each antioxidant was at a concentration of 0.01% w/w. The mixtures (as well as controls) were maintained at 60° C. Samples of each mixture were removed at a series of time points over a period of 26 days, and the peroxide value of each sample was measured using standard laboratory techniques (FIG. 2).

[6] = antioxidant activity, peroxide value of corn oil; details: 0.01% w/w (100 ppm), 60° C., FIG. 1
Procedure: as §4

[7] = 50 μl at 1.4 M or 0.14 M on 16 mm filter disc
[8] = concentrations lower than 0.14 M, 16 mm filter disc

Row | SMILES | carcinogenicity (forestomachs of rats) | concentration at which complete inhibition occurred (Listeria monocytogenes [1]) | concentration at which complete inhibition occurred (Salmonella enteritidis) | concentration at which complete inhibition occurred (Salmonella cocktail) | concentration at which complete inhibition occurred (Salmonella typhimurium [2]) | concentration at which complete inhibition occurred (Salmonella heidelberg) | concentration at which complete inhibition occurred (E. coli O157:H7) | zones of growth inhibition (Listeria monocytogenes [3]; [7]) | zones of growth inhibition (Listeria monocytogenes [3]; [8]) | zones of growth inhibition (Salmonella typhimurium [4]; [7]) | zones of growth inhibition (Salmonella typhimurium [4]; [8]) | zones of growth inhibition (Escherichia coli; [7]) | zones of growth inhibition (Escherichia coli; [8]) | antioxidant activity (peroxide value) ([5]; 26 days) | period over which antioxidant activity is maintained [5] | antioxidant activity (peroxide value) ([6]; 28 days) | period over which antioxidant activity is maintained [6]
1 | COc1ccc(O)c(C(C)(C)C)c1 [BHA, butylated hydroxyanisole] | implicated as a carcinogen promoting formation of tumors in the forestomachs of rats | – | – | – | – | – | – | – | – | – | – | – | – | – | – | – | –
2 | Oc1ccc(O)c(O)c1O [THB, 1,2,3,4-tetrahydroxybenzene] | – | ≥ 5.6 mM | ≥ 5.6 mM | ≥ 5.6 mM | ≥ 5.6 mM | ≥ 5.6 mM | ≥ 5.6 mM | led to appearance of zones of inhibition | did not form zones of inhibition greater than the diameter of the filter | led to appearance of zones of inhibition | did not form zones of inhibition greater than the diameter of the filter | led to appearance of zones of inhibition | did not form zones of inhibition greater than the diameter of the filter | highly effective antioxidant, equal or superior to PG, TBHQ, PG, and α-tocopherol | at least 26 days | highly effective antioxidant, equal or superior to PG, TBHQ, PG, and α-tocopherol | at least 26 days
